Assay results taken from ChEMBL document CHEMBL3286103.
Calls of active or inactive are those of the source. The rule behind the calls is not given here.

Biological target: T1, Vitamin D3 receptor A (Danio rerio) (UniProt Q9PTN2)
T1 sequence (whole entry): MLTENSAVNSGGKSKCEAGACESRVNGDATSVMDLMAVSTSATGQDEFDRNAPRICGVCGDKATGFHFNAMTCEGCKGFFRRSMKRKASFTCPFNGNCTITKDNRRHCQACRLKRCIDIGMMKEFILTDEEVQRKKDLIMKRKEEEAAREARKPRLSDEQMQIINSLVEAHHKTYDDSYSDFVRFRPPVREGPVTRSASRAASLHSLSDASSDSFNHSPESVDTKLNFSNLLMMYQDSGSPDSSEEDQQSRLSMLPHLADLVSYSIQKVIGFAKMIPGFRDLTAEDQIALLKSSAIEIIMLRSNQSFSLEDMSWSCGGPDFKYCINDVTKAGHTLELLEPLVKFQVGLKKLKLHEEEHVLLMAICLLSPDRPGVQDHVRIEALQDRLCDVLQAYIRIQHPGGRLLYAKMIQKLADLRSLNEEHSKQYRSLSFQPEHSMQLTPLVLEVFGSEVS
Assay: Binding affinity to N-terminal His-tagged zebrafish VDR LBD (154 to 456) at 10 to 20-fold molar excess by ESI-MS analysis

C[C@H](CCC(=O)O)[C@H]1CC[C@H]2[C@@H]3CC[C@@H]4C[C@H](O)CC[C@]4(C)[C@H]3CC[C@]12C
Activity: Active
